Laboratory results reported in patent US20100249373A1, “SCREENING METHODS” (priority 2007, published 2010).

How the values were obtained:
[1] = tested on: NCKX5; experiment: Western blot of NCKX5 protein after siRNA knockdown in human melanocytes; assay type: cell-based; details: 5 days after siRNA mediated knockdown; anti C-terminus pAb; FIG. 28
Experimental: FIG. 28—Western blot analysis of NCK5 after knockdown. Using Western blotting we have investigated NCKX5 protein expression 5 days after siRNA mediated knockdown (all 5 siRNA duplexes and controls were tested). Western blot was also used to evaluate the expression and processing (maturation) of tyrosinase (tyr) in the same samples. SDS-PAGE (10% PA for NCKX5, 4-12% for tyr, 5 μg protein/lane). A) Western blot for NCKX5: Detection via rabbit anti-NCKX5 pAb (anti C-terminus peptide). B) Western blot for tyr, via goat pAb (Santa Cruz). 1=No treatment, 2=scrambled siRNA control, 3-7=siRNA's 185, 260, 301, 492, 1110. […] These bands are absent in the samples where SLC24A5-specific duplexes were used (lanes 3-7). It is possible that the doublet represents the presence of alternate SLC24A5 splice variants.
Cultured Cells (trypsinised off of 6-well culture plates) were lysed on ice for 20 minutes in 1.5 ml eppendorfs using 100 μl per sample of 1% triton X-100 in dPBS containing protease inhibitor cocktail (Sigma-Aldrich, Poole, UK). Cell extracts were centrifuged (10 minutes at 13000 g) to separate melanin and cell debris from the solubilised protein. The protein concentration of each supernatant fraction was determined by BCA assay as described in A).
20 μg protein (as determined by BCA assay) was reconstituted into 20 μl of 1×LDS loading buffer (Invitrogen Ltd, Paisley, UK) containing 1× reducing agent (Invitrogen Ltd, Paisley, UK), heated to 40° C. for 30 minutes and loaded onto 10% Novex bis-tris acrylamide gels with 1×MOPS running buffer (Invitrogen Ltd, Paisley, UK). Kaleidoscope molecular weight markers (Bio-Rad Laboratories Ltd, Hemel Hempstead, UK) were run alongside samples for size determinations. Protein was transferred onto PVDF membrane by electrophoresis transfer, using a Bio-Rad mini-cell II trans-blotter and 1×Tris-Glycine transfer buffer (Invitrogen Ltd, Paisley, UK)+15% v/v methanol (100V for 1 hour).
Membranes containing transferred protein were “blocked” using 2% w/v skimmed milk protein (SMP) in PBS+0.05% tween20 (PBST) for 1 hour with gentle agitation. Peptide affinity purified rabbit polyclonal antibody (raised using a peptide equivalent to the C-terminus of NCKX5—GNNKIRGCGG) was diluted to 0.5 μg/ml using 2% SMP in PBST. The diluted antibody was incubated with the membrane for 2 hours at room temperature. The membrane was then rinsed with PBST (4×5 minutes washes). Peroxidase conjugated anti-rabbit IgG (Jackson ImmunoResearch Laboratories Inc. PA, USA) was diluted 1/4000 using 2% SMP in PBST and was incubated with the membranes for 1 hour. Finally, membranes were washed using 6×5 minute rinses with PBST. […]

[2] = tested on: lightly pigmented human melanocytes; experiment: Quantitative assessment of melanogenesis (melanin content) after siRNA knockdown; assay type: cell-based; details: replicated x3, FIG. 27
Experimental: FIG. 27—Quantitative assessment of melanogenesis. A decrease in post-treatment melanin content is noted for duplex (492) in lightly pigmented human melanocytes (replicated ×3).
To each pellet of melanin+cell debris obtained in section 2), 0.5 ml of diethyl ether:ethanol (1:1 ratio) was added. Eppendorfs were vortexed vigorously for 30 seconds and centrifuged at 13000 g for 5 minutes. The ether layer was carefully removed to waste and a further 0.5 ml was added. The tubes were agitated and centrifuged as before. The liquid phase was again removed and the melanin pellets were allowed to air dry at room temperature for 10 minutes. Melanin pellets were solubilised by the addition of 200 μl of 1M NaOH+10% DMSO and incubation (with occasional agitation) at 50° C. for 1 hour. 80 μl aliquots of each sample were transferred to a 96-well microtitre plate in duplicate. OD^450 of each sample was determined and the melanin content of each fraction was calculated from a synthetic melanin standard curve, prepared as described above. In treatment comparisons, results were expressed as μg melanin per μg protein.
Primary human melanocytes isolated from lightly pigmented or darkly pigmented neonatal foreskin were obtained from Cascade Biologics. Melanocyte Growth Medium (MGM) refers to Medium 254 (Cascade Biologics) supplemented with HMGS (Cascade Biologics). […]

Substance	NCKX5 Western blot bands of approx. 42 and 44 kDa [1]	post-treatment melanin content [2]
260 (sense GAGCGCAGAGATGGAGGCATCATAA; antisense CTCGCGTCTCTACCTCCGTAGTATT; chemistry not given here; one strand is listed 3' to 5') [compound 260]	absent	
185 (sense AGGGCCACAGGAAATAGCACCCAAT; antisense TCCCGGTGTCCTTTATCGTGGGTTA; chemistry not given here; one strand is listed 3' to 5') [compound 185]	absent	
492 (sense GCACCATCCTTGGATCTGCAATTTA; antisense CGTGGTAGGAACCTAGACGTTAAAT; chemistry not given here; one strand is listed 3' to 5') [compound 492]	absent	decrease
301 (sense CGTTTACATGTTCATGGCCATATCT; antisense GCAAATGTACAAGTACCGGTATAGA; chemistry not given here; one strand is listed 3' to 5') [compound 301]	absent	
